The test system of series [1] is oxidation of low density lipoprotein in plasma. Briefly: Oxidation of lipid in plasma/LDL samples measured as thiobarbituric acid reactive substance (TBAR). Type of series: biochemical. The conditions noted are these: for % inhibition / Test (TBAR): 0.1 mM PBN, 4° C. for seven weeks; for % inhibition: actual inhibition greater than measured (assay interference by PBN). The procedure:
Diabetic atherosclerosis involves the abnormal and excessive glycation of protein in the vascular wall. As discussed above for diabetic neuropathy, this involves oxygen radical production and consequent further damage to cytosolic proteins. Spin-trapping compounds will prevent this abnormal processing of cellular protein and other cellular constituents. […] Plasma samples were tested for oxidation of lipid measured using thiobarbioturic acid reactive substance (TBAR, nM) and % inhibition of oxidation calculated.

The next series is described as follows: Toxicity tests (LD50). Type of series: in vivo. The procedure:
Exemplary dosages of the parent phenyl t-butyl nitrone administered intravenously range from 0.1 to 10 mg/kg of body weight in animals. […] It is possible to extrapolate from comparative tests using other spin trapping compounds what the effective dosage for these compounds will be.

For series [2], the system named is protein oxidation and enzyme activity in aged cells/brain. In words: Age-related protein oxidation and enzyme activity after daily administration. Type of series: in vivo. The conditions noted are these: aging; daily administration for fourteen days. The text has this:
The consequence of this increased level of protein oxidation is an abnormally low level of critical enzymes in the affected cells. While not all cells have been evaluated, it appears from the in vivo data presented in U.S. Ser. No. 07/589,177abandoned on Mar. 5, 1993, and U.S. Ser. No. 07/422,651, now U.S. Pat. No. 5,025,032, and reports of in vitro studies, that most, if not all, cells in the body will undergo abnormally high levels of protein oxidation. Decreases in antioxidant systems and abnormally low levels of mitochondrial function have been described. The protein oxidation is thought to arise from oxygen free radicals, largely generated via a metal catalyzed reaction within the cell. […] Organs for transplantation are obtained from donors. The success of the procedure is determined in part by the age (oxidation) related reduction in organ viability, the amount of time the organ is in preservation solution, and the status of the recipient.

For series [3] the test system is unchanged. Conditions: as early as seven days following initiation of daily treatment; cited from earlier work.
For series [4], the system named is free radicals produced by adriamycin in heart, brain and other organs. Conditions: brain and other organs of research animals; cited from earlier work.

As to `CC(C)(C)[N+]([O-])=Cc1ccccc1` [PBN, phenyl N-tert-butylnitrone], the “% inhibition” value in series [1] (NP132 plasma) is listed as 18.2%; in series [1] (NP133 LDL), 48.1%; in series [1] (NP134 plasma) it was 22.2%; in series [1] (NP135 LDL) it was 66.7%; in series [1] (NP135 plasma), 21.9%. The “Test (TBAR)” value in series [1] (NP132 plasma, control + PBS 0.55) turned out to be 0.45 nM/ml; in series [1] (NP133 LDL, control + PBS 0.54), 0.28 nM/ml; in series [1] (NP134 plasma, control + PBS 0.18) it was 0.14 nM/ml; in series [1] (NP135 LDL, control + PBS 0.33), 0.11 nM/ml; in series [1] (NP135 plasma, control + PBS 0.32), 0.25 nM/ml. For the same compound, the “oxidation of low density lipoprotein in plasma” value in series [1] (in vitro studies) is “inhibits or reduces oxidation of low density lipoprotein in plasma”. In the series “Toxicity tests (LD50)”, the LD50 entry is reported as “not possible to determine an LD50”. The toxicity result in the series “Toxicity tests (LD50)” is given as “completely innocuous”. For the same compound, the “abnormally low level of enzyme activity” value in series [2] was “restored to normal”. Also, the “level of protein oxidation” value in series [2] is given as “decreased”. Further, the “enzymatic status of the aged brain” value in series [3] is recorded as “restoring enzymatic levels to near those of the young adult”. Also, the “trapping of free radicals produced by adriamycin” value in series [4] is “trap the free radicals produced by adriamycin”.

The values are drawn from patent US6403627B1, “Spin trapping pharmaceutical compositions and methods for use thereof” (Oklahoma Medical Research Foundation, priority 1991, dated 2002).
